Results as given in ChEMBL document CHEMBL4818984, “Kojic acid-natural product conjugates as mushroom tyrosinase inhibitors” (Eur J Med Chem, 2020).
The source made the active and inactive calls. No cut-off for these calls is given here.

What was measured:
[1] = target: T1, Tyrosinase (Agaricus bisporus, UniProt O42713); experiment: Inhibition of mushroom tyrosinase assessed as reduction in dopachrome formation using L-DOPA as substrate by ELISA
T1 sequence (O42713 whole entry): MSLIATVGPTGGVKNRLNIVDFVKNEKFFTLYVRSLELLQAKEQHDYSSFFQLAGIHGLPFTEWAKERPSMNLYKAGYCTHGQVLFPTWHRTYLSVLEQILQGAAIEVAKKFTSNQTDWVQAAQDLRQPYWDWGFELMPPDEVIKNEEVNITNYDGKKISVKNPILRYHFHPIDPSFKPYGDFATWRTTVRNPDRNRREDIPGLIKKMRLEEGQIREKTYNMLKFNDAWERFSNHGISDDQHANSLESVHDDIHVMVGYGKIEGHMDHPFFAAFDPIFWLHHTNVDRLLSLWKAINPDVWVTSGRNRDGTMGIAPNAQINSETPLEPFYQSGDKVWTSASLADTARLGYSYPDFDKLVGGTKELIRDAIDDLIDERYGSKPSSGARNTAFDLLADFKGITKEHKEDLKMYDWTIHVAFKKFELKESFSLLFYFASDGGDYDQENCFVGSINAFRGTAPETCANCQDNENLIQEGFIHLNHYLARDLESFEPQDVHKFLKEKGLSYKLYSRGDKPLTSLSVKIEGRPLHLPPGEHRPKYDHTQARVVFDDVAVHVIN

[2] = Antioxidant activity assessed as DPPH radical scavenging activity at 10 uM; assay type: functional
[3] = target: T2, Tyrosinase (Homo sapiens, UniProt P14679); experiment: Inhibition of tyrosinase (unknown origin)
T2 sequence (P14679 whole entry): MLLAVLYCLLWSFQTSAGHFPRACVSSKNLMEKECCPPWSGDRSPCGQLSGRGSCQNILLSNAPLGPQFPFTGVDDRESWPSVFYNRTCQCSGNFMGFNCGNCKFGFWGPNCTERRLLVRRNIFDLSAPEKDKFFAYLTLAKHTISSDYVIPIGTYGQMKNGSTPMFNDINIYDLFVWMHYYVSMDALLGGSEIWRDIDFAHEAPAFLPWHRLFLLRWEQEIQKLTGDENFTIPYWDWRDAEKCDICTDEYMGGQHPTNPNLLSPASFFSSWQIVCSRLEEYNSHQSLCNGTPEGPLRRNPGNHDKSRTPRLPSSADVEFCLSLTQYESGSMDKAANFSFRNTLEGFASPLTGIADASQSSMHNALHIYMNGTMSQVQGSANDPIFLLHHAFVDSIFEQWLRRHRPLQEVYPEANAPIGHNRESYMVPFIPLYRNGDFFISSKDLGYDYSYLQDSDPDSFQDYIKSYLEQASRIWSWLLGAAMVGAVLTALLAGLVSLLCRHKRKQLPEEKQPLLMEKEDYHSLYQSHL

[4] = target: T3, Tyrosinase (Agaricus bisporus) (UniProt O42713); experiment: Potency index, ratio of kojic acid IC50 to compound IC50 for inhibition of mushroom tyrosinase using L-DOPA as substrate by ELISA
T3 sequence (whole entry): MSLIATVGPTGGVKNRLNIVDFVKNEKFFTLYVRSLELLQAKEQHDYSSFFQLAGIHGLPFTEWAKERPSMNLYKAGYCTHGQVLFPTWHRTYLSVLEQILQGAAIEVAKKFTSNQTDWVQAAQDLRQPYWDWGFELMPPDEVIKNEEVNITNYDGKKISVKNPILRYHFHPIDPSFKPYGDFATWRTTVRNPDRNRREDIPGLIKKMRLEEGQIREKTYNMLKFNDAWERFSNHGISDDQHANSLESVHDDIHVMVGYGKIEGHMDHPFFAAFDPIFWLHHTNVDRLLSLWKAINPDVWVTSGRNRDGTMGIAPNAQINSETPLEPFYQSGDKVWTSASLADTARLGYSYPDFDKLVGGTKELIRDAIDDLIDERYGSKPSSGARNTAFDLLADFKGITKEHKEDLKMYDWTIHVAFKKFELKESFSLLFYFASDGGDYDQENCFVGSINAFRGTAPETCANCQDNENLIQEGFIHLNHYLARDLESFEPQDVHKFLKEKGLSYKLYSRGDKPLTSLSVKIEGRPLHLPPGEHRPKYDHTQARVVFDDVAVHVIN

[5] = target: T1, Tyrosinase; experiment: Inhibition of mushroom tyrosinase using L-tyrosine as substrate measured after 15 mins by microplate reader analysis
[6] = target: T1, Tyrosinase; experiment: Competitive inhibition of mushroom tyrosinase using L-DOPA as substrate by Lineweaver-Burk double reciprocal plot analysis
[7] = target: T3, Tyrosinase (Agaricus bisporus); experiment: Non-competitive inhibition of mushroom tyrosinase using L-DOPA as substrate by Lineweaver-Burk double reciprocal plot analysis
[8] = test system: B16-F10; experiment: cells; details: Mus musculus
Description: Cytotoxicity against mouse B16-F10 cells assessed as reduction in cell viability by MTT assay

[9] = test system: HFF; experiment: cells; details: Homo sapiens
Description: Cytotoxicity against human HFF cells assessed as reduction in cell viability by MTT assay

[10] = compound: COc1cc(C(C)=O)ccc1OCc1cn(Cc2cc(=O)c(O)co2)nn1; experiment: (§1) Mixed-type of inhibition of mushroom tyrosinase assessed as Vmax using L-DOPA as substrate at 0.025 uM measured at 475 nm by Lineweaver-Burk double reciprocal plot analysis (reference value: […] to […] deltaOD/min); details: Agaricus bisporus
[11] = compound: Cc1ccc(C(C)C)cc1OCc1cn(Cc2cc(=O)c(O)co2)nn1; experiment: as §1; details: Agaricus bisporus
[12] = compound: O=c1cc(OCc2cn(Cc3cc(=O)c(O)co3)nn2)c2ccccc2o1; experiment: as §1; details: Agaricus bisporus
[13] = compound: COc1cc(C(C)=O)ccc1OCc1cn(Cc2cc(=O)c(O)co2)nn1; experiment: (§2) Mixed-type of inhibition of mushroom tyrosinase assessed as Vmax using L-DOPA as substrate at 0.05 uM measured at 475 nm by Lineweaver-Burk double reciprocal plot analysis (reference value: […] to […] deltaOD/min); details: Agaricus bisporus
[14] = compound: Cc1ccc(C(C)C)cc1OCc1cn(Cc2cc(=O)c(O)co2)nn1; experiment: as §2; details: Agaricus bisporus
[15] = compound: O=c1cc(OCc2cn(Cc3cc(=O)c(O)co3)nn2)c2ccccc2o1; experiment: as §2; details: Agaricus bisporus
[16] = compound: COc1cc(C(C)=O)ccc1OCc1cn(Cc2cc(=O)c(O)co2)nn1; experiment: (§3) Mixed-type of inhibition of mushroom tyrosinase assessed as Vmax using L-DOPA as substrate at 0.1 uM measured at 475 nm by Lineweaver-Burk double reciprocal plot analysis (reference value: […] to […] deltaOD/min); details: Agaricus bisporus
[17] = compound: Cc1ccc(C(C)C)cc1OCc1cn(Cc2cc(=O)c(O)co2)nn1; experiment: as §3; details: Agaricus bisporus
[18] = compound: O=c1cc(OCc2cn(Cc3cc(=O)c(O)co3)nn2)c2ccccc2o1; experiment: as §3; details: Agaricus bisporus
[19] = compound: COc1cc(C(C)=O)ccc1OCc1cn(Cc2cc(=O)c(O)co2)nn1; experiment: (§4) Mixed-type of inhibition of mushroom tyrosinase assessed as Km using L-DOPA as substrate at 0.025 uM by Lineweaver-Burk double reciprocal plot analysis (reference value: […] to […] mM); details: Agaricus bisporus
[20] = compound: Cc1ccc(C(C)C)cc1OCc1cn(Cc2cc(=O)c(O)co2)nn1; experiment: as §4; details: Agaricus bisporus
[21] = compound: O=c1cc(OCc2cn(Cc3cc(=O)c(O)co3)nn2)c2ccccc2o1; experiment: as §4; details: Agaricus bisporus
[22] = compound: COc1cc(C(C)=O)ccc1OCc1cn(Cc2cc(=O)c(O)co2)nn1; experiment: (§5) Mixed-type of inhibition of mushroom tyrosinase assessed as Km using L-DOPA as substrate at 0.05 uM by Lineweaver-Burk double reciprocal plot analysis (reference value: […] to […] mM); details: Agaricus bisporus
[23] = compound: Cc1ccc(C(C)C)cc1OCc1cn(Cc2cc(=O)c(O)co2)nn1; experiment: as §5; details: Agaricus bisporus
[24] = compound: O=c1cc(OCc2cn(Cc3cc(=O)c(O)co3)nn2)c2ccccc2o1; experiment: as §5; details: Agaricus bisporus
[25] = compound: COc1cc(C(C)=O)ccc1OCc1cn(Cc2cc(=O)c(O)co2)nn1; experiment: (§6) Mixed-type of inhibition of mushroom tyrosinase assessed as Km using L-DOPA as substrate at 0.1 uM by Lineweaver-Burk double reciprocal plot analysis (reference value: […] to […] mM); details: Agaricus bisporus
[26] = compound: Cc1ccc(C(C)C)cc1OCc1cn(Cc2cc(=O)c(O)co2)nn1; experiment: as §6; details: Agaricus bisporus
[27] = compound: O=c1cc(OCc2cn(Cc3cc(=O)c(O)co3)nn2)c2ccccc2o1; experiment: as §6; details: Agaricus bisporus
[28] = compound: O=c1cc(OCc2cn(Cc3cc(=O)c(O)co3)nn2)c2ccccc2o1; experiment: Mixed-type of inhibition of mushroom tyrosinase assessed as Vmax using L-DOPA as substrate at 0.5 uM measured at 475 nm by Lineweaver-Burk double reciprocal plot analysis (reference value: […] deltaOD/min); details: Agaricus bisporus

## O=c1ccc2ccc(OCc3cn(Cc4cc(=O)c(O)co4)nn3)cc2o1
[1]
  IC50: 0.23 µM
[2]
  Activity: inactive

## C/C=C/c1ccc(O)c(OC)c1
[3]
  IC50: 33.3 µM

## O=c1cc(Cn2cc(COc3ccc4c(c3)OCO4)nn2)occ1O
[1]
  IC50: 0.06 µM
[2]
  Activity: inactive
[4]
  Ratio IC50: 133

## C=CCc1ccc(O)c(OC)c1 [EUGENOL]
[5]
  IC50: 923 µM

## C=CCc1ccc(OCc2cn(Cc3cc(=O)c(O)co3)nn2)c(OC)c1
[1]
  IC50: 1.07 µM
[2]
  Activity: inactive

## Cc1ccc(C(C)C)c(OCc2cn(Cc3cc(=O)c(O)co3)nn2)c1
[1]
  IC50: 0.69 µM
[2]
  Activity: inactive

## CC(=O)c1ccc(OCc2cn(Cc3cc(=O)c(O)co3)nn2)cc1
[1]
  IC50: 1.21 µM
[2]
  Activity: inactive

## COc1cc(C=O)ccc1O [VANILLIN]
[5]
  IC50: 4100 µM

## COc1cc(C(C)=O)ccc1OCc1cn(Cc2cc(=O)c(O)co2)nn1
[1]
  IC50: 0.03 µM
[6]
  Ki: 0.07 µM
[7]
  Kis: 0.19 µM
[2]
  Activity: inactive
[4]
  Ratio IC50: 133
[8]
  IC50: 416 µM
[9]
  IC50: 213 µM

## O=Cc1ccc(OCc2cn(Cc3cc(=O)c(O)co3)nn2)cc1
[1]
  IC50: 1.05 µM
[2]
  Activity: inactive

B1: Tyrosinase (Agaricus bisporus), O42713 (protein)
chain: MSLIATVGPTGGVKNRLNIVDFVKNEKFFTLYVRSLELLQAKEQHDYSSFFQLAGIHGLPFTEWAKERPSMNLYKAGYCTHGQVLFPTWHRTYLSVLEQILQGAAIEVAKKFTSNQTDWVQAAQDLRQPYWDWGFELMPPDEVIKNEEVNITNYDGKKISVKNPILRYHFHPIDPSFKPYGDFATWRTTVRNPDRNRREDIPGLIKKMRLEEGQIREKTYNMLKFNDAWERFSNHGISDDQHANSLESVHDDIHVMVGYGKIEGHMDHPFFAAFDPIFWLHHTNVDRLLSLWKAINPDVWVTSGRNRDGTMGIAPNAQINSETPLEPFYQSGDKVWTSASLADTARLGYSYPDFDKLVGGTKELIRDAIDDLIDERYGSKPSSGARNTAFDLLADFKGITKEHKEDLKMYDWTIHVAFKKFELKESFSLLFYFASDGGDYDQENCFVGSINAFRGTAPETCANCQDNENLIQEGFIHLNHYLARDLESFEPQDVHKFLKEKGLSYKLYSRGDKPLTSLSVKIEGRPLHLPPGEHRPKYDHTQARVVFDDVAVHVIN
[10]
  Vmax: 0.232 deltaOD/min
[11]
  Vmax: 0.241 deltaOD/min
[12]
  Vmax: 0.21 deltaOD/min
[13]
  Vmax: 0.208 deltaOD/min
[14]
  Vmax: 0.219 deltaOD/min
[15]
  Vmax: 0.176 deltaOD/min
[16]
  Vmax: 0.183 deltaOD/min
[17]
  Vmax: 0.192 deltaOD/min
[18]
  Vmax: 0.122 deltaOD/min
[19]
  Km: 1580 µM
[20]
  Km: 1520 µM
[21]
  Km: 1710 µM
[22]
  Km: 1920 µM
[23]
  Km: 1830 µM
[24]
  Km: 2020 µM
[25]
  Km: 2110 µM
[26]
  Km: 2020 µM
[27]
  Km: 2250 µM
[28]
  Vmax: 0.021 deltaOD/min
